Laboratory results from patent US6770741B1, “Brandykinin antagonist peptides” (Scios Inc., priority 1991, dated 2004).
Several values for one entry are separate records, joined by “and”; a condition that tells them apart may be missing. Equal entries are not always repeated. Residues, ends and D or L forms follow the SMILES beside them.

Key:
[1] = biological target: T1, bradykinin receptors on intestinal (ileal longitudinal) smooth muscle (Cavia porcellus, UniProt O70526); experiment: Bradykinin antagonist activity on guinea pig ileal longitudinal smooth muscle (Schild analysis); format: cell-based; settings: antagonism of bradykinin-induced contraction, 5 min antagonist exposure; for Kb: read-out: pA2 (converted)
T1 construct: The longitudinal muscle was separated from the underlying circular muscle; from tissue; host or cells: guinea pig ileal longitudinal smooth muscle strips
T1 sequence (O70526 1-372): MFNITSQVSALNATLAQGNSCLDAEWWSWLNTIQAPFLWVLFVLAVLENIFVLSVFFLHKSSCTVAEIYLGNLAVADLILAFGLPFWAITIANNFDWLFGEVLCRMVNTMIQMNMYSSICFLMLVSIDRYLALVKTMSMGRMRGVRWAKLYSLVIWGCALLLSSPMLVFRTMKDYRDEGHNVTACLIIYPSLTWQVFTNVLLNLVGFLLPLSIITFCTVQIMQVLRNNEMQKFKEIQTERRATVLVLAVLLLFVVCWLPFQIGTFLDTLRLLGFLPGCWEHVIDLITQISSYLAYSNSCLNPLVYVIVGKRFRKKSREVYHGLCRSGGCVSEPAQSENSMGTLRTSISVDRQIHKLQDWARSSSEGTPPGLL
Experimental: Determination of Bradykinin Antagonist Activity
Guinea pig intestine was removed and placed in a Petri dish containing Tyrodes solution and cut into 3-4 cm segments. The longitudinal muscle was separated from the underlying circular muscle using a cotton applicator (Paton and Zar, J. Physiol., (1968), 194:13. Muscle strips were connected to isometric force-displacement transducers (Grass or Gould) coupled to a physiograph and placed in tissue baths containing Tyrode's solution at 37° C. Each preparation was suspended under a resting tension of 2 g.
After equilibration of the tissues, appropriate volumes of bradykinin solutions were cumulatively added to the 10 mL tissue baths to increase the concentration of bradykinin in the bath step-by-step without washing out after each single dose. Higher concentrations were added only after the preceding contraction had reached a steady value. […] Antagonism of bradykinin responses in the presence of antagonist were determined by repeating the cumulative addition procedure for bradykinin after the tissue has been exposed to the antagonist for 5 minutes. Three or four different concentrations of antagonist are studied sequentially in the same preparations. Responses were expressed as a percentage of the maximum contraction elicited by bradykinin in the absence of antagonist. pA2 values were calculated by Schild analysis.

[2] = biological target: T2, bradykinin receptor (Cavia porcellus, UniProt O70526); experiment: 3H-Bradykinin binding assay, guinea pig terminal ileum homogenate; settings: competition with 3H-bradykinin (~0.3 nM), guinea pig terminal ileum membranes, 90 min ambient temperature
T2 construct: from tissue; host or cells: guinea pig terminal ileum, washed membrane homogenate
T2 sequence (O70526 1-372): T1 sequence (O70526 1-372)
Experimental: Bradykinin Binding Procedure
Binding of ^3H-Bradykinin was preformed using the method of D. C. Manning, R. Vavrek, J. M. Stewart, and S. H. Synder, J. Pharmacol. Exp. Ther., (1986), 237, 504. The tissues used in the binding assay were terminal ileum from male Hartley guinea pigs (150-350 g). After dissection, tissues were placed in 20 vol of ice-cold buffer A (25 mM TES containing 0.2 g/L of 1,10-phenanthroline adjusted to pH 6.8 with ammonium hydroxide) and homogenized using a Ploytron Tissumizer at setting 6 for 15 sec. The homogenate was centrifuged at 50,000 x g for 10 min, the supernatant discarded, and the pellet resuspended in ice-cold buffer A by homogenization with the Polytron. Each tissue was homogenized and centrifuged three times. The final pellet was resuspended in buffer A containing bovine serum albumin (1 g/L) and Bacitracin (0.14 g/L) to a final volume of 170 mL/g of the original tissue weight. The binding assay consisted of 1 mL in 12×75 mm polypropylene tubes: 50 uL ^3H-bradykinin (20,000 dpm, ˜0.3 nM in the final assay volume), […] displacing drug in buffer A, and 750 uL tissue homogenate. Each tray contained tubes, to which no drug was added to measure maximum binding and tubes to which bradykinin (1 uM final concentration) had been added, to measure […]. Specific binding accounted for 96-98% total binding. Tubes were incubated for 90 min at ambient temperature. The assays were terminated by filtration over Whatman GF/B glass fiber filters that had been pretreated for 2 hours with polyethyleneimine (2 g/L) using a Brandel Tissue Harvester, followed by washing with 4×1 mL aliquots of ice-cold 50 mM Tris, pH 7.4. Filters were dissolved in Ready-Safe Fluor (Beckman) for at least 90 min before quantitation by liquid scintillation spectrometry. Kd values were determined using saturation binding and analysis by EBDA (G. A. MacPherson, J. Pharmacol. Methods, (1985), 213), followed by LIGAND (P. J. Munson, D. Rodbard, Anal. Biochem., (1980), 220). Ki values were determined using competitive analysis followed by EBDA and LIGAND. The following test results were obtained.

[3] = anesthetized rat, intra-aortic vs intravenous administration; cited from earlier work
[4] = cited from earlier work

Compound	Kb [1]	Ki [2] [nM]	destruction on a single passage through the pulmonary circulation [3]	half life in the systemic circulation [4]	pA2 [1]
CCCO[C@@H]1C[C@H](C(=O)N2Cc3ccccc3C[C@H]2C(=O)N[C@@H](CCCNC(=N)N)C(=O)O)N(C(=O)[C@H](CO)NC(=O)[C@H](Cc2cccs2)NC(=O)CNC(=O)[C@@H]2C[C@@H](O)CN2C(=O)[C@@H]2CCCN2C(=O)[C@H](CCCNC(=N)N)NC(=O)[C@H](N)CCCNC(=N)N)C1 [D-Arg-Arg-Pro-4Hyp-Gly-Thi-Ser-(D-4-hydroxyproline cis propyl ether)-Tic-Arg]	8910 nM and 3160 nM	172 ± 45			
CCCO[C@H]1C[C@H](C(=O)N2Cc3ccccc3C[C@H]2C(=O)N[C@@H](CCCNC(=N)N)C(=O)O)N(C(=O)[C@H](CO)NC(=O)[C@H](Cc2cccs2)NC(=O)CNC(=O)[C@@H]2C[C@@H](O)CN2C(=O)[C@@H]2CCCN2C(=O)[C@H](CCCNC(=N)N)NC(=O)[C@H](N)CCCNC(=N)N)C1 [D-Arg-Arg-Pro-4Hyp-Gly-Thi-Ser-(D-4-Hydroxyproline trans propyl ether)-Tic-Arg]	24.5 nM	0.59			
CO[C@H]1C[C@H](C(=O)N2Cc3ccccc3C[C@H]2C(=O)N[C@@H](CCCNC(=N)N)C(=O)O)N(C(=O)[C@H](CO)NC(=O)[C@H](Cc2cccs2)NC(=O)CNC(=O)[C@@H]2C[C@@H](O)CN2C(=O)[C@@H]2CCCN2C(=O)[C@H](CCCNC(=N)N)NC(=O)[C@H](N)CCCNC(=N)N)C1 [D-Arg-Arg-Pro-4Hyp-Gly-Thi-Ser-(D-4-hydroxyproline trans methyl ether)-Tic-Arg]	186 nM	1.54			
NC(N)=NCCC[C@H](NC(=O)[C@H](Cc1ccccc1)NC(=O)[C@@H]1CCCN1C(=O)[C@H](CO)NC(=O)[C@H](Cc1ccccc1)NC(=O)CNC(=O)[C@@H]1CCCN1C(=O)[C@@H]1CCCN1C(=O)[C@@H](N)CCCN=C(N)N)C(=O)O [bradykinin, Arg Pro Pro Gly Phe Ser Pro Phe Arg] (H-RPPGFSPFR-OH)			98-99%	less than 30 seconds	
D-Arg-Arg-Pro-4Hyp-Gly-Phe-Ser-D-Phe-Phe-Arg [reference compound]					5.9
CO[C@@H]1C[C@H](C(=O)N2Cc3ccccc3C[C@H]2C(=O)N[C@@H](CCCNC(=N)N)C(=O)O)N(C(=O)[C@H](CO)NC(=O)[C@H](Cc2cccs2)NC(=O)CNC(=O)[C@@H]2C[C@@H](O)CN2C(=O)[C@@H]2CCCN2C(=O)[C@H](CCCNC(=N)N)NC(=O)[C@H](N)CCCNC(=N)N)C1 [D-Arg-Arg-Pro-4Hyp-Gly-Thi-Ser-(D-4-hydroxyproline cis methyl ether)-Tic-Arg]	5750 nM and 6310 nM	164 ± 20			
